Where “and” joins values, the source holds several entries; their conditions need not be identical. Equal entries are not always repeated. Inconclusive results and toxic doses are left out. How the source made its calls: active means survival T/C of 150% or more; inactive means T/C below 125% in these data.
Test system: CD2F1 mice, L1210 leukemia ip, survival T/C
Test: NCI In Vivo Anticancer Drug Screen. Data for tumor model L1210 Leukemia (intraperitoneal) in CD2F1 (CDF1) mice
Settings: endpoint: mean survival time, higher = longer survival
In short: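 Antitumor effect is scored in animals hosting a serially transplanted tumor. Values compare compound-dosed animals against vehicle-only controls as a simple quotient.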

[1] = dose: 100.0 mg/kg/injection, schedule: Q01DX009 (ip), vehicle: saline with Tween-80
[2] = dose: 100.0 mg/kg/injection, schedule: Q04DX003 (ip), vehicle: saline with Tween-80
[3] = dose: 200.0 mg/kg/injection, schedule: Q01DX009 (ip), vehicle: saline with Tween-80
[4] = dose: 200.0 mg/kg/injection, schedule: Q04DX003 (ip), vehicle: saline with Tween-80
[5] = dose: 400.0 mg/kg/injection, schedule: Q01DX009 (ip), vehicle: saline with Tween-80
[6] = dose: 400.0 mg/kg/injection, schedule: Q04DX003 (ip), vehicle: saline with Tween-80
[7] = dose: 100.0 mg/kg/injection, schedule: Q01DX001 (ip), vehicle: saline
[8] = dose: 100.0 mg/kg/injection, schedule: Q04DX003 (ip), vehicle: saline
[9] = dose: 200.0 mg/kg/injection, schedule: Q01DX001 (ip), vehicle: saline
[10] = dose: 200.0 mg/kg/injection, schedule: Q04DX003 (ip), vehicle: saline
[11] = dose: 400.0 mg/kg/injection, schedule: Q01DX001 (ip), vehicle: saline
[12] = dose: 400.0 mg/kg/injection, schedule: Q04DX003 (ip), vehicle: saline
[13] = dose: 25.0 mg/kg/injection, schedule: Q01DX009 (ip), vehicle: saline with Tween-80
[14] = dose: 50.0 mg/kg/injection, schedule: Q01DX009 (ip), vehicle: saline with Tween-80
[15] = dose: 50.0 mg/kg/injection, schedule: Q01DX009 (ip), vehicle: Klucel (hydroxypropylcellulose) (HPC)
[16] = dose: 100.0 mg/kg/injection, schedule: Q01DX009 (ip), vehicle: Klucel (hydroxypropylcellulose) (HPC)
[17] = dose: 200.0 mg/kg/injection, schedule: Q01DX009 (ip), vehicle: Klucel (hydroxypropylcellulose) (HPC)
[18] = dose: 12.5 mg/kg/injection, schedule: Q01DX009 (ip), vehicle: saline
[19] = dose: 25.0 mg/kg/injection, schedule: Q01DX009 (ip), vehicle: saline
[20] = dose: 50.0 mg/kg/injection, schedule: Q01DX009 (ip), vehicle: saline
[21] = dose: 400.0 mg/kg/injection, schedule: Q01DX001 (ip), vehicle: other
[22] = dose: 100.0 mg/kg/injection, schedule: Q01DX009 (ip), vehicle: saline
[23] = dose: 200.0 mg/kg/injection, schedule: Q01DX009 (ip), vehicle: saline

Measured: T/C

O=C(O)/C=C\C(=O)Nc1ccc(Cl)cc1
inactive: [1] 102 % of control | [2] 108 % of control | [3] 93 % of control | [4] 97 % of control | [5] 98 % of control | [6] 94 % of control

O=S(=O)(O)Cc1ccccc1O
inactive: [7] 100 % of control | [8] 96 % of control | [9] 100 % of control | [10] 95 % of control | [11] 102 % of control | [12] 89 % of control

COc1cc(C(=O)NNC(=O)c2ccc(Cl)cc2)cc(OC)c1OC
inactive: [1] 94 % of control | [3] 86 % of control

O=c1[nH]c2ccc(I)cc2c(=O)o1
inactive: [2] 101 % of control | [4] 98 % of control | [6] 104 % of control

COc1cc(C(C)=O)cc(OCc2ccccc2)c1OC
inactive: [1] 100 % of control | [3] 102 % of control | [5] 96 % of control

Clc1n[nH]c(Cl)n1
inactive: [13] 97 % of control | [14] 100 % of control | [1] 89 % of control | [2] 86 % of control

COc1ccc(C2=NCCc3cc(OC)c(OC)cc32)cc1OC
inactive: dose: 12.5 mg/kg/injection, schedule: Q01DX009 (ip), vehicle: other 90 % of control | dose: 25.0 mg/kg/injection, schedule: Q01DX009 (ip), vehicle: other 92 % of control

Cc1nocc1CC1=C2CCCC(=O)C2(C)CCC1=O (stereo unspecified)
inactive: dose: 100.0 mg/kg/injection, schedule: Q01DX001 (ip), vehicle: alcohol 94 % of control | dose: 200.0 mg/kg/injection, schedule: Q01DX001 (ip), vehicle: alcohol 92 % of control | dose: 400.0 mg/kg/injection, schedule: Q01DX001 (ip), vehicle: alcohol 95 % of control

CN1CCC(CCOCc2ccccc2)(CN2c3ccccc3Sc3ccccc32)C1 (stereo unspecified)
inactive: dose: 6.25 mg/kg/injection, schedule: Q04DX003 (ip), vehicle: saline with Tween-80 106 % of control | dose: 12.5 mg/kg/injection, schedule: Q04DX003 (ip), vehicle: saline with Tween-80 110 % of control | dose: 25.0 mg/kg/injection, schedule: Q04DX003 (ip), vehicle: saline with Tween-80 104 % of control

COc1ccc(NC(=O)Nc2c(C)n(C)n(-c3ccccc3)c2=O)c(Cl)c1
inactive: [15] 95 % of control | [16] 95 % of control | dose: 100.0 mg/kg/injection, schedule: Q04DX003 (ip), vehicle: Klucel (hydroxypropylcellulose) (HPC) 104 % of control | [17] 95 % of control | dose: 200.0 mg/kg/injection, schedule: Q04DX003 (ip), vehicle: Klucel (hydroxypropylcellulose) (HPC) 104 % of control | dose: 400.0 mg/kg/injection, schedule: Q04DX003 (ip), vehicle: Klucel (hydroxypropylcellulose) (HPC) 104 % of control

OCCN1CCN(CC/C=C2/c3ccccc3Sc3ccc(Cl)cc32)CC1
inactive: dose: 1.56 mg/kg/injection, schedule: Q01DX009 (ip), vehicle: saline 92 % of control and 97 % of control | dose: 3.12 mg/kg/injection, schedule: Q01DX009 (ip), vehicle: saline 98 % of control | dose: 6.25 mg/kg/injection, schedule: Q01DX009 (ip), vehicle: saline 104 % of control and 110 % of control | [18] 116 % of control and 110 % of control | [19] 122 % of control and 124 % of control | [20] 106 % of control

C=CCOc1c(C)cc(C)cc1C
inactive: [15] 113 % of control | [16] 94 % of control | [17] 102 % of control

O=C(O)/C=C/C(=O)NNC(=O)/C=C/C(=O)O
inactive: [14] 94 % of control | [1] 96 % of control | [3] 91 % of control

NC(=O)NC1CC1(c1ccccc1)c1ccccc1 (stereo unspecified)
inactive: dose: 177.0 mg/kg/injection, schedule: Q01DX001 (ip), vehicle: other 94 % of control | dose: 267.0 mg/kg/injection, schedule: Q01DX001 (ip), vehicle: other 96 % of control | [21] 100 % of control

COc1ccc(OC)cc1
inactive: dose: 100.0 mg/kg/injection, schedule: Q01DX001 (ip), vehicle: other 103 % of control | dose: 200.0 mg/kg/injection, schedule: Q01DX001 (ip), vehicle: other 94 % of control | [21] 101 % of control

CN(C)CCCCO
inactive: [20] 98 % of control | [22] 98 % of control | [8] 95 % of control | [23] 97 % of control | [10] 96 % of control

O=C(NCCCCCCNC(=O)N1CC1)N1CC1
inactive: dose: 0.4 mg/kg/injection, schedule: Q01DX001 (ip), vehicle: saline 109 % of control | dose: 0.8 mg/kg/injection, schedule: Q01DX001 (ip), vehicle: saline 118 % of control | dose: 1.7 mg/kg/injection, schedule: Q01DX001 (ip), vehicle: saline 114 % of control

O=C(O)C1(O)C[C@@H](O)C(O)[C@H](O)C1 (stereo partly specified)
inactive: [7] 102 % of control | [8] 108 % of control | [9] 96 % of control | [10] 98 % of control | [11] 100 % of control | [12] 102 % of control

CC(C)C(Br)C(N)=O (stereo unspecified)
inactive: dose: 100.0 mg/kg/injection, schedule: Q01DX009 (ip), vehicle: saline sonified 97 % of control | dose: 200.0 mg/kg/injection, schedule: Q01DX009 (ip), vehicle: saline sonified 89 % of control | dose: 400.0 mg/kg/injection, schedule: Q01DX009 (ip), vehicle: saline sonified 87 % of control

CC1(C)C2CCC1(CS(=O)(=O)O)C(=O)C2.[Ag] (stereo unspecified)
inactive: dose: 100.0 mg/kg/injection, schedule: Q04DX003 (ip), vehicle: acetone 96 % of control

CCCN1COC(OCC)C(C)(C)C1 (stereo unspecified)
inactive: dose: 12.5 mg/kg/injection, schedule: Q01DX009 (ip), vehicle: saline with Tween-80 112 % of control | [18] 91 % of control | [13] 100 % of control | [19] 100 % of control | [14] 107 % of control | [20] 103 % of control | [1] 114 % of control | [22] 97 % of control | [3] 106 % of control | [23] 109 % of control

Cc1ccc(NC(=O)/C=C/c2ccccc2)c(C)c1
inactive: dose: 100.0 mg/kg/injection, schedule: Q04DX002 (ip), vehicle: saline with Tween-80 94 % of control | dose: 200.0 mg/kg/injection, schedule: Q04DX002 (ip), vehicle: saline with Tween-80 94 % of control | dose: 400.0 mg/kg/injection, schedule: Q04DX002 (ip), vehicle: saline with Tween-80 94 % of control

O=[N+]([O-])c1ccc(C(O)(c2ccc([N+](=O)[O-])cc2)c2ccc([N+](=O)[O-])cc2)cc1
inactive: [1] 96 % of control | [2] 98 % of control | [3] 95 % of control | [4] 97 % of control | [5] 96 % of control | [6] 97 % of control

Cc1ccc(S(=O)(=O)NCCC(=O)Nc2ccccc2)cc1
inactive: dose: 50.0 mg/kg/injection, schedule: Q01DX009 (ip), vehicle: water 86 % of control | dose: 100.0 mg/kg/injection, schedule: Q01DX009 (ip), vehicle: water 86 % of control | dose: 200.0 mg/kg/injection, schedule: Q01DX009 (ip), vehicle: water 93 % of control

OCC1OC(n2cnc3c(N4CCCC4)ncnc32)C(O)C1O (stereo unspecified)
inactive: dose: 12.5 mg/kg/injection, schedule: Q01DX005 (ip), vehicle: other 101 % of control | dose: 25.0 mg/kg/injection, schedule: Q01DX005 (ip), vehicle: other 101 % of control | dose: 50.0 mg/kg/injection, schedule: Q01DX005 (ip), vehicle: other 108 % of control | dose: 100.0 mg/kg/injection, schedule: Q01DX005 (ip), vehicle: other 106 % of control | dose: 200.0 mg/kg/injection, schedule: Q01DX005 (ip), vehicle: other 96 % of control

Reference: PubChem BioAssay AID256 (DTP/NCI, 2004)
